The values below come from US12240815B2, “Potent and selective human neuronal nitric oxide synthase inhibitors” (Northwestern University, priority 2020, dated 2025).

One series deals with human nNOS (Homo sapiens, UniProt P29475). The series is described as follows: NO hemoglobin capture assay, human nNOS. It counts as biochemical. The following applies: for Selectivity Human n/e: human nNOS versus human eNOS.
The nature of another series: PAMPA-BBB assay. The following applies: for Pe PAMPA-BBB: Table 4; for Papp at 17 h, 200 μM: PAMPA, pH 7.5.
The target of the next series is iNOS (Mus musculus, UniProt P29477). The series is described as follows: NO hemoglobin capture assay, iNOS (Table 4, species not given).
A further series deals with human eNOS (Homo sapiens, UniProt P29474). The series is described as follows: NO hemoglobin capture assay, human eNOS.
In a further series the target is rat nNOS (Rattus norvegicus, UniProt P29476). The series is described as follows: NO hemoglobin capture assay, rat nNOS. It counts as biochemical. The conditions noted are these: for Selectivity n/i: nNOS versus iNOS.
The target in another series is murine macrophage iNOS (Mus musculus, UniProt P29477). The series is described as follows: NO hemoglobin capture assay, murine iNOS. Type of series: biochemical. The following applies: Table 1; Ki from IC50 by Cheng-Prusoff; 10 μM L-Arg, pH 7.4, 37° C.
The target of a further series is human iNOS (Homo sapiens, UniProt P35228). The series is described as follows: NO hemoglobin capture assay, human iNOS. The conditions noted are these: read-out: Ki HiNOS; Table 5; Ki from IC50 by Cheng-Prusoff, 8 to 11 concentrations.
Where [1] appears, read: Table 4, read-out: Ki Human nNOS.
[2] abbreviates: pH 7.4, read-out: Ki human nNOS.
[3] abbreviates: Table 5, Ki from IC50 by Cheng-Prusoff, 8 to 11 concentrations, read-out: Ki HnNOS.
The mark [4] stands for this setting: Table 5, Ki from IC50 by Cheng-Prusoff, 8 to 11 concentrations, read-out: Ki RnNOS.

The structures appear in SMILES notation. Where a name gives a salt, the structure may show the parent alone. Read-outs that look alike come from different tables or passages of the source. Bounds are passed on as bounds.

Chain of human nNOS (P29475 whole entry): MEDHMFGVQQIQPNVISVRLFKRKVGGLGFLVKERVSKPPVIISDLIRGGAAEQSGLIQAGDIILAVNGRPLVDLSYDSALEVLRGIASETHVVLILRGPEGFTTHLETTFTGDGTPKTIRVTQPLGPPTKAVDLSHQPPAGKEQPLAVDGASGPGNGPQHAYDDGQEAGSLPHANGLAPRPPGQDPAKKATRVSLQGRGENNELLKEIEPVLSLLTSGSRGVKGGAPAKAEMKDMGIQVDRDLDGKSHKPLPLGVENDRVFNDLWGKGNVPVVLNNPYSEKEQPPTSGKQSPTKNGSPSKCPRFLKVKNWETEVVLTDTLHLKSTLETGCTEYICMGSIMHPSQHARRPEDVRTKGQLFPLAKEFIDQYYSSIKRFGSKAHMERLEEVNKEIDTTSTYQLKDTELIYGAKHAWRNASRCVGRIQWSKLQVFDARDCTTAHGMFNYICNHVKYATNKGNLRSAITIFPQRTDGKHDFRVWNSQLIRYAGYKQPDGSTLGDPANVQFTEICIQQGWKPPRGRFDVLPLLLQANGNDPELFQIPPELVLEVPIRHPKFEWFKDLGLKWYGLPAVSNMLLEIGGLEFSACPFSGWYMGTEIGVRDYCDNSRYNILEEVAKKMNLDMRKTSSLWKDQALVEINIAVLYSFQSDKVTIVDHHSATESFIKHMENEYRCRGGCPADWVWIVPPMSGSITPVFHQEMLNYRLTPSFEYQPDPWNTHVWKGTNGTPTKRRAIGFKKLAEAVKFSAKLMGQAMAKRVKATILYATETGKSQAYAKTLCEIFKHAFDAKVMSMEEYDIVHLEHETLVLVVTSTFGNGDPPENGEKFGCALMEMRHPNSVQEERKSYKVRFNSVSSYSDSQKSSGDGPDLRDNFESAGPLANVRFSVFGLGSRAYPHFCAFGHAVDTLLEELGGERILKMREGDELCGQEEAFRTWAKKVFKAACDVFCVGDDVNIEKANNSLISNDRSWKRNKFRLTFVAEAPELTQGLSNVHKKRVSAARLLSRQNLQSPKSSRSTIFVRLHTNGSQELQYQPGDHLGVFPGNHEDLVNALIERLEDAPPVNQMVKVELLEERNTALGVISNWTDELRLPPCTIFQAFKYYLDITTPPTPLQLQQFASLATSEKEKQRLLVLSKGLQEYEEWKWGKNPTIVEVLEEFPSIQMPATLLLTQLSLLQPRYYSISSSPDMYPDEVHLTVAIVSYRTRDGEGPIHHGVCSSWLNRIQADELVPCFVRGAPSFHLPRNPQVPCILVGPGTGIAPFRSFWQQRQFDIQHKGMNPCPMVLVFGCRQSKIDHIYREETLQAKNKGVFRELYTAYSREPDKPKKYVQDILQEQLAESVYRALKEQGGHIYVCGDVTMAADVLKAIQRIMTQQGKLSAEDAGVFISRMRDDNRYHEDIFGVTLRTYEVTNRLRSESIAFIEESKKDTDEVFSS
Chain of rat nNOS (P29476 whole entry): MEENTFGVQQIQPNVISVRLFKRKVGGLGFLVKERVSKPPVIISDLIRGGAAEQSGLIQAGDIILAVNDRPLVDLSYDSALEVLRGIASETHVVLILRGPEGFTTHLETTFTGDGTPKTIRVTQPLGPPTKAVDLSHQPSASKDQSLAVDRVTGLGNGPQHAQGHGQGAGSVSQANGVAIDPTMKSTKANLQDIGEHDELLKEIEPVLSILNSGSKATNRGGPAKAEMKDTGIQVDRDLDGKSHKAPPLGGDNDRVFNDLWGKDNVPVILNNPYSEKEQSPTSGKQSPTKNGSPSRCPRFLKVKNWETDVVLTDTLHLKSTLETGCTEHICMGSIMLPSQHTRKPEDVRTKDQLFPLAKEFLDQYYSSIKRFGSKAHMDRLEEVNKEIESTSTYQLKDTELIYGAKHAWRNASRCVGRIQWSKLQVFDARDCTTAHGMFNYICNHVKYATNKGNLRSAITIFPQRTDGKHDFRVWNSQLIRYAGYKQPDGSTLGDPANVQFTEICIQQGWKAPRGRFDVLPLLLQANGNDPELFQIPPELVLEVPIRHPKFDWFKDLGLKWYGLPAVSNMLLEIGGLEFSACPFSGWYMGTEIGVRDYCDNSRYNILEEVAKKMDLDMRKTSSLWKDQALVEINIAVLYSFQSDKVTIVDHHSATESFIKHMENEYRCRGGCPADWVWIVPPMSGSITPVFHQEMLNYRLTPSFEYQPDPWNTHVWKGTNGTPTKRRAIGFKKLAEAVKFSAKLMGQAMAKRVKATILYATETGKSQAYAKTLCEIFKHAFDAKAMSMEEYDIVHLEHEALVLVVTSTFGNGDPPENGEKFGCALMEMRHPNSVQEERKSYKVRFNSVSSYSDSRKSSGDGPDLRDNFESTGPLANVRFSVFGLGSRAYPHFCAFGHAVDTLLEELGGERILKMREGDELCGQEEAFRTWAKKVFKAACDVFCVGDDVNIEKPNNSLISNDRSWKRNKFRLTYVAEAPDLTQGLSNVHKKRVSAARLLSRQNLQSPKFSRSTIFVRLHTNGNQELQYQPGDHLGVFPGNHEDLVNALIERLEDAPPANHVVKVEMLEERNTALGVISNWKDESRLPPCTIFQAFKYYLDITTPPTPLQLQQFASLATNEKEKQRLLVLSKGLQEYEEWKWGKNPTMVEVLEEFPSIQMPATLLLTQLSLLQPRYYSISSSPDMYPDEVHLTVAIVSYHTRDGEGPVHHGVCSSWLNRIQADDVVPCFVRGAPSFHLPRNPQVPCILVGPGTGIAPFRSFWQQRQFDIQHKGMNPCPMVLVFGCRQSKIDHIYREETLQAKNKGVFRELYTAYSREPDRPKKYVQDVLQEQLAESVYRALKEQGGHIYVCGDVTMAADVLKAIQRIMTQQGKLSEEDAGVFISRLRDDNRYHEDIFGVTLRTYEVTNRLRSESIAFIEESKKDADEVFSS

As to `CNC/C=C/c1cc(F)cc(CCc2cc(C)cc(N)n2)c1` [Compound 48], the “Selectivity nNOS human/rat” value on human nNOS (Table 4) was 1.3. For the same compound, on human nNOS (Table 4), the “Selectivity Human n/e” value worked out at 721. In addition, the Ki (as a rule, a dissociation constant, usually derived from enzyme kinetics or from competition with a known ligand) was found to be 28 nM on human nNOS (setting [1]); 2730 nM at iNOS; 20200 nM at human eNOS; 21 nM at rat nNOS (Table 4, read-out: Ki Rat nNOS). For the same compound, the “Pe PAMPA-BBB” value in “PAMPA-BBB assay” was 10.30 ± 0.02 10^-6 cm/s. Further, the Selectivity n/i on rat nNOS (Table 4) is reported as 130.
Take `CCO[C@@H]1C[C@H](CCc2cc(F)c(F)c(CCc3cc(C)cc(N)n3)c2)N(C)C1` [Compound 20, 6-(5-(2-((2S,4R)-4-ethoxy-1-methylpyrrolidin-2-yl)ethyl)-2,3-difluorophenethyl)-4-methylpyridin-2-amine]: the Ki at human nNOS (setting [2]) came to 87 nM; at murine macrophage iNOS it was 4500 nM; at rat nNOS (pH 7.4, read-out: Ki rat nNOS), 55 nM.
`Cc1cc(N)nc(CCc2cc(CN(C)C)cc(F)c2F)c1` [Compound 54]: affinity at iNOS was put at a Ki of 76 nM.
For `Cc1cc(N)nc(CCc2cc(C#CCN(C)C)cc(F)c2F)c1` [Compound 16, 6-(5-(3-(dimethylamino)prop-1-yn-1-yl)-2,3-difluorophenethyl)-4-methylpyridin-2-amine], the Ki on human nNOS (setting [2]) was determined as 84 nM; on murine macrophage iNOS, 4410 nM; on rat nNOS (pH 7.4, read-out: Ki rat nNOS), 81 nM.
As for `Cc1cc(N)nc(CCc2c(F)c(F)cc(CC[C@@H]3CCCN3C)c2F)c1` [Compound 51], on human nNOS (Table 4), the “Selectivity nNOS human/rat” value is 1.7. For the same compound, the “Selectivity Human n/e” value at human nNOS (Table 4) was determined as 266. In addition, the inhibition constant (Ki) on human nNOS (setting [1]) is 112 nM; at iNOS, 5880 nM; at human eNOS, 29800 nM; at rat nNOS (Table 4, read-out: Ki Rat nNOS), 67 nM. Moreover, in the series “PAMPA-BBB assay”, the “Pe PAMPA-BBB” value is reported as 20 ± 0.85 10^-6 cm/s. Further, the Selectivity n/i at rat nNOS (Table 4) came out at 88.
As for `Cc1cc(N)nc(CCc2c(F)c(F)cc(CC[C@H]3CCCN3C)c2F)c1` [Compound 52], the “Selectivity nNOS human/rat” value on human nNOS (Table 4) is 1.62. For the same compound, at human nNOS (Table 4), the “Selectivity Human n/e” value is on record as 196. In addition, the Ki at human nNOS (setting [1]) was 151 nM; at iNOS, 10000 nM; on human eNOS it was 27300 nM; on rat nNOS (Table 4, read-out: Ki Rat nNOS), 93 nM. Also, the “Pe PAMPA-BBB” value in the series “PAMPA-BBB assay” is listed as 20.3 ± 0.16 10^-6 cm/s. At rat nNOS (Table 4), this compound showed a Selectivity n/i of 108.
Turning to `Cc1cc(N)nc(CCc2c(F)c(F)cc(CCCN(C)C)c2F)c1` [Compound 13, 6-(3-(3-(dimethylamino)propyl)-2,5,6-trifluorophenethyl)-4-methylpyridin-2-amine], the Ki at human nNOS (setting [2]) amounted to 58 nM; on murine macrophage iNOS it was 3260 nM; at rat nNOS (pH 7.4, read-out: Ki rat nNOS), 47 nM.
Take `Nc1cc(Cl)cc(OCc2cccc(F)c2F)n1` [Compound 68, 4-Chloro-6-((2,3-difluorobenzyl)oxy)pyridin-2-aminehydrochloride]: at rat nNOS (read-out: Ki RnNOS), the Ki is 102000 nM.
For the compound `Cc1cc(N)nc(CCc2cc(F)cc(CC[C@H]3CCCN3C)c2)c1` [Compound 7, (S)-6-(3-fluoro-5-(2-(1-methylpyrrolidin-2-yl)ethyl)phenethyl)-4-methylpyridin-2-amine], the Ki turned out to be 84 nM on human nNOS (setting [2]); 3390 nM on murine macrophage iNOS; 33 nM at rat nNOS (pH 7.4, read-out: Ki rat nNOS).
Take `CNCC#Cc1cc(C)cc(N)n1` [Compound 71, 4-Methyl-6-(3-(methylamino)prop-1-yn-1-yl)pyridin-2-amine hydrochloride]: on human nNOS (Table 5), the Selectivity hn/rn came to 1.0. The Ki is 92 nM at human nNOS (setting [3]), 3580 nM at human iNOS and 88 nM at rat nNOS (setting [4]).
As to `Cc1cc(N)nc(CCc2cc(CCN(C)C)cc(F)c2F)c1` [Compound 58, 6-(5-(2-(Dimethylamino)ethyl)-2,3-difluorophenethyl)-4-methylpyridin-2-amine hydrochloride], the “Pe PAMPA-BBB” value in “PAMPA-BBB assay” is on record as 19.5 ± 1.4 10^-6 cm/s. Affinity at iNOS was put at a Ki of 1050 nM.
Regarding `CNCCCc1cc(C)cc(N)n1` [Compound 70, 4-Methyl-6-(3-(methylamino)propyl)pyridin-2-amine hydrochloride], the Selectivity hn/rn on human nNOS (Table 5) stood at 1.4. In addition, the Ki came to 21 nM on human nNOS (setting [3]), 669 nM at human iNOS and 29 nM at rat nNOS (setting [4]).
For `Cc1cc(N)nc(CCc2cc(CC[C@H]3COCCN3C)cc(F)c2F)c1` [Compound 19, (S)-6-(2,3-difluoro-5-(2-(4-methylmorpholin-3-yl)ethyl)phenethyl)-4-methylpyridin-2-amine], the Ki turned out to be 89 nM at human nNOS (setting [2]); 3450 nM on murine macrophage iNOS; 62 nM at rat nNOS (pH 7.4, read-out: Ki rat nNOS).
For `CNCc1ccc2ncc(CCc3cc(C)cc(N)n3)cc2c1` [Compound 49], the “Selectivity nNOS human/rat” value at human nNOS (Table 4) was 0.9. Besides, the “Selectivity Human n/e” value at human nNOS (Table 4) amounted to 614. For the same compound, the Ki at human nNOS (setting [1]) came to 36 nM; at iNOS, 3760 nM; at human eNOS it was 22100 nM; on rat nNOS (Table 4, read-out: Ki Rat nNOS), 38 nM. Besides, in “PAMPA-BBB assay”, the “Pe PAMPA-BBB” value is given as “No permeability”. This compound came in with a Selectivity n/i on rat nNOS (Table 4) of 99.
As to `Cc1cc(N)nc(CCc2cc(F)cc(CC[C@@H]3C[C@H](F)CN3)c2)c1` [Compound 8, 6-(3-fluoro-5-(2-((2R,4S)-4-fluoropyrrolidin-2-yl)ethyl)phenethyl)-4-methylpyridin-2-amine], the “drop in human nNOS potency compared to 1” value at human nNOS came to 4 fold. In addition, the Ki at human nNOS (setting [2]) was determined as 129 nM; on murine macrophage iNOS, 4540 nM; on rat nNOS (pH 7.4, read-out: Ki rat nNOS), 65 nM.
In the case of `Cc1cc(N)nc(C#CCN2CCN(C)CC2)c1` [Compound 73, 4-Methyl-6-(3-(4-methylpiperazin-1-yl)prop-1-yn-1-yl)pyridin-2-amine], on human nNOS (Table 5), the Selectivity hn/rn came out at 2.2. Besides, the values for the Ki at human nNOS (setting [3]), on human iNOS and on rat nNOS (setting [4]) were 2120 nM, 114000 nM and 947 nM, respectively.
For `Cc1cc(N)nc(CCc2cc(F)cc(CCCN(C)C)c2F)c1` [Compound 12, 6-(3-(3-(dimethylamino)propyl)-2,5-difluorophenethyl)-4-methylpyridin-2-amine], the Ki at human nNOS (setting [2]) amounted to 157 nM; on murine macrophage iNOS, 1950 nM; on rat nNOS (pH 7.4, read-out: Ki rat nNOS), 79 nM.
`CN(C)CCc1cc(F)c(F)c(CCc2cccc(N)n2)c1` [Compound 59, 6-(5-(2-(Dimethylamino)ethyl)-2,3-difluorophenethyl)pyridin-2-amine hydrochloride]: the Ki on human nNOS amounted to 3160 nM; at rat nNOS (Ki RnNOS, Table 5, Ki from IC50 by Cheng-Prusoff, 8 to 11 concentrations) it was 940 nM.
Consider `Cc1cc(N)nc(CCc2cc(F)cc(CC[C@@H]3C[C@H](F)CN3C)c2)c1` [Compound 9, 6-(3-fluoro-5-(2-((2R,4S)-4-fluoro-1-methylpyrrolidin-2-yl)ethyl)phenethyl)-4-methylpyridin-2-amine], for which the Ki on murine macrophage iNOS was 5010 nM.
Take `CN(C)CCc1cc(F)c(F)c(CCc2cc(C(F)(F)F)cc(N)n2)c1` [Compound 64, 6-(5-(2-(Dimethylamino)ethyl)-2,3-difluorophenethyl)-4-(trifluoromethyl)pyridin-2-amine]: at human eNOS, the Ki amounted to 102000 nM.
As to `Cc1cc(N)nc(CCc2cc(F)cc(CC[C@@H]3CCCN3C)c2)c1` [Compound 5, (R)-6-(3-fluoro-5-(2-(1-methylpyrrolidin-2-yl)ethyl)phenethyl)-4-methylpyridin-2-amine], the Ki amounted to 52 nM at human nNOS (setting [2]); 2910 nM on murine macrophage iNOS; 26 nM on rat nNOS (pH 7.4, read-out: Ki rat nNOS).
`Cc1cc(N)nc(CCc2cc(CC[C@H]3CCCN3C)cc(F)c2F)c1` [Compound 18, (S)-6-(2,3-difluoro-5-(2-(1-methylpyrrolidin-2-yl)ethyl)phenethyl)-4-methylpyridin-2-amine]: the apparent permeability (Papp) (commonly the rate of passage across a membrane or cell layer, normalised by area and donor concentration) at 17 h, 200 μM in “PAMPA-BBB assay” is about 18 ×10⁻⁶ cm/s.
Take `CNC/C=C\c1cc(F)cc(CCc2cc(C)cc(N)n2)c1` [Compound 47]: on human nNOS (Table 4), the “Selectivity nNOS human/rat” value came out at 2.5. For the same compound, the “Selectivity Human n/e” value at human nNOS (Table 4) was 320. Moreover, the Ki on human nNOS (setting [1]) came out at 77 nM; on iNOS, 2280 nM; on human eNOS, 24700 nM; on rat nNOS (Table 4, read-out: Ki Rat nNOS) it was 31 nM. For the same compound, in “PAMPA-BBB assay”, the “Pe PAMPA-BBB” value is given as 10.92 ± 0.02 10^-6 cm/s. This compound also had a Selectivity n/i at rat nNOS (Table 4) of 73.
In “PAMPA-BBB assay”, `Cc1cc(N)nc(CCc2cc(CC[C@@H]3CCCN3C)cc(F)c2F)c1` [Compound 17, (R)-6-(2,3-difluoro-5-(2-(1-methylpyrrolidin-2-yl)ethyl)phenethyl)-4-methylpyridin-2-amine] displayed a Papp at 17 h, 200 μM of about 18 ×10⁻⁶ cm/s.
Turning to `CNCC#Cc1cc(F)c(F)c(CCc2cc(C)cc(N)n2)c1F` [Compound 50], the “Selectivity nNOS human/rat” value at human nNOS (Table 4) turned out to be 1.4. For the same compound, on human nNOS (Table 4), the “Selectivity Human n/e” value is on record as 157. The Ki amounted to 168 nM on human nNOS (setting [1]); 5780 nM at iNOS; 26500 nM at human eNOS; 119 nM on rat nNOS (Table 4, read-out: Ki Rat nNOS). Also, the “Pe PAMPA-BBB” value in the series “PAMPA-BBB assay” is 19.10 ± 0.5 10^-6 cm/s. Also, the Selectivity n/i at rat nNOS (Table 4) came out at 48.
On to `Cc1cc(N)nc(CCc2cc(F)cc(C#CCN(C)C)c2)c1` [Compound 3, 6-(3-(3-(dimethylamino)prop-1-yn-1-yl)-5-fluorophenethyl)-4-methylpyridin-2-amine], for which the “drop in human nNOS potency compared to 1” value on human nNOS is given as over 4 fold. Besides, the Ki on human nNOS (setting [2]) came out at 124 nM; at murine macrophage iNOS it was 4890 nM; on rat nNOS (pH 7.4, read-out: Ki rat nNOS), 58 nM. For the same compound, the “drop in rat nNOS potency compared to 1” value at rat nNOS is “more than 2 fold”.
For `CNCC#Cc1cc(F)cc(CCc2cc(C)cc(N)n2)c1` [Compound 2, 6-(3-fluoro-5-(3-(methylamino)prop-1-yn-1-yl)phenethyl)-4-methylpyridin-2-amine], the inhibitory constant (Ki) at human nNOS (setting [2]) turned out to be 58 nM; at murine macrophage iNOS, 7620 nM; on rat nNOS (pH 7.4, read-out: Ki rat nNOS) it was 32 nM.
